# Measured values taken from patent publication US20260256790A1, “DEBIO-0123 IN COMBINATION WITH TEMOZOLOMIDE AND RADIOTHERAPY FOR USE IN TREATING GLIOMA” (Debiopharm International S.A., priority 2023, published 2026).
# How the values were obtained:
# [1] = system: LN18 GBM cell line; assay: Colony formation with radiotherapy, LN18; assay type: cell-based; conditions: 0.1 μM to 5.0 μM, irradiated at 1, 2 and 4 Gy, p<0.0001
# Experimental: (§1) GBM tumor cells (T98G, LN18, SNB-19 and U251) were grown as an adherent monolayer at 37° C. in a humidified atmosphere (5% CO2, 95% air). For experimental use, tumor cells were detached from culture flasks by a 5-minute treatment with trypsin-versene, in Hanks' medium without calcium or magnesium and neutralized by addition of complete culture medium. Cells were counted and viability assessed using a 0.25% trypan blue exclusion assay. All cell lines were appropriately seeded following the conditions for monolayer colony formation in 6-well plates (Ref #152795, Nunc, Dutscher) in 1.9 ml of cell culture medium, at 3 densities for evaluation of a proclonogenic effect. […]
# (§2) Treatments were performed at 24 hours (D1) after seeding by addition of ×20 concentrated compound or vehicle solutions, to obtain final concentrations of 0.1 μM to 5.0 μM of Compound of formula (I) [referred to as CoF (I) in FIG. 3]. […] After 14 days of incubation, colonies were counted after being stained through incubation with 500 μl of a solution of water containing 0.05% (w/v) of methylene blue (Ref. M4159, Sigma) for 2 hours. Colonies were counted using a colony counter pen (Ref #045855, Dutscher, Brumath, France). The Surviving Fraction was calculated for each condition using the equations described below and plotted on a semi-logarithmic graph using the Linear-Quadratic model. […]
# [2] = system: SNB-19 GBM cell line; assay: Colony formation with radiotherapy, SNB-19; assay type: cell-based; conditions: SNB19; 0.1 μM to 5.0 μM; irradiated at 1, 2 and 4 Gy; p<0.0001
# Experimental: as §1, §2
# [3] = system: U87-MG-luc GBM cell line; assay: U87-MG-luc tumors implanted intracranially in mice, combination with temozolomide; assay type: in vivo; conditions: 28 day cycle
# Experimental: Male athymic nude mice were injected into the cerebellum with 1×10^5 U87-MG-luc cells in Matrigel. Animals were imaged to monitor tumor establishment and growth throughout the study using an In Vivo Imaging System (IVIS) once weekly, detecting tumor bioluminescence (BLI) in photons. Once tumor establishment was confirmed, animals were randomly allocated into 8 treatment groups: vehicle (0.5% methycellulose, 1% Tween 80 P.O. and saline IV.), Compound of formula (I) [CoF (I)](formulated as a suspension in 0.5% methycellulose and 1% Tween 80) administered orally at 3 mg/kg, at 10 mg/kg or at 30 mg/kg once daily (QD) in monotherapy, temolozomide [TMZ] administered orally at 3 mg/kg once daily (QD) in monotherapy, over a 28 day cycle, and combination of TMZ+compound of formula (I) at each dose) (n=6 animals per group for monotherapy groups and n=8 animals per group for combination groups). In combination arms, Compound of formula (I) and was administered 2 hours prior to TMZ. During routine monitoring, the animals were checked for any effects of tumor growth and treatments on behavior such as mobility, food and water consumption, body weight gain/loss 3 times a week, eye/hair matting and any other abnormalities. Mortality and observed clinical signs were recorded for individual animals in detail.
# [4] = system: SF188 cells; assay: Colony formation assay in SF188 cells; assay type: cell-based; conditions: up to 400 nM, 10 days post-treatment
# Experimental: SF188 cells were transfected with ATRX siRNA (siATRX_1 or siATRX_2) either individually (A) or as a pool (B and C) or control siRNA (siCon) and ATRX deficiency assessed by determining relative ATRX protein levels by western blotting. Control and ATRX-deficient SF188 cells were then treated with compound of formula (I) at a range of concentrations between 0 and 1.5 uM (FIG. 7A) and at 400 nM (FIG. 7B) and drug sensitivities were assessed via an ATP-based cell viability assay or in colony formation assay.
# For cell viability assessment, SF188 cells were seeded in 96-well culture plates at 100-500 cells in 100 μl of culture media per well. After overnight incubation, 100 μl of culture media containing compound of formula (I) was added to each well at the desired final concentration. After 72 h, cell viability was assessed by CellTiter-Glo 2.0 according to the manufacturer's instructions. Each condition was tested in triplicate or quadruplicate, and the average viability is presented as a percentage of vehicle-treated cells. For colony formation assessment (FIG. 7C), SF188 cells were seeded on a 6-well plate at 100 cells per well in 1 ml of culture media. […] The number of colonies in each well was counted manually. […] Colony-forming efficiency was determined by normalizing the colony numbers to the vehicle-treated cells.
structure (smiles),measurement,setting,value
Cc1cc(Nc2ncc3c(n2)N(C)CN(c2c(Cl)cccc2Cl)C3=O)ccc1C1CCN(C)CC1 [Compound of formula (I)],"Effect on radiotherapy (surviving fraction, colony formation)",[1],significantly increased effect of radiotherapy
same,"Effect on radiotherapy (surviving fraction, colony formation)",[2],significantly increased effect of radiotherapy
same,Anti-tumor activity (mean relative BLI) vs vehicle,[3]; monotherapy 3 mg/kg oral QD,did not result in any significant anti-tumor activity
same,Anti-tumor activity (mean relative BLI) vs vehicle,[3]; monotherapy 10 mg/kg oral QD,did not result in any significant anti-tumor activity
same,Anti-tumor activity (mean relative BLI) vs vehicle,"[3]; monotherapy 30 mg/kg oral QD, p=0.0133 on day 36",significantly smaller tumors than vehicle controls
same,"Surviving fraction of cells, colony formation assay",[4],significantly reduced the surviving fraction of cells
